The text below walks through data of PMC8122972, “Methoxy-Substituted Tyramine Derivatives Synthesis, Computational Studies and Tyrosinase Inhibitory Kinetics” (Molecules, 2021).

The structures appear in SMILES notation. Several values for one entry are separate records, joined by “and”; a condition that tells them apart may be missing. Identical values can stand only once. Entries after “also recorded” stand apart in the source; their conditions may differ. Like-named read-outs stand apart in the source and are kept apart here.

One may read the IC50 as the concentration that gives 50% inhibition. By inhibition is commonly meant how much of the control response was suppressed. The term Ki denotes a measure of affinity in units of concentration, obtained from inhibition or displacement. Usually melting point stands for the temperature, or range, at which the solid turns liquid.

The target of series [1] is T1, mushroom tyrosinase (Agaricus bisporus, UniProt C7FF04).
T1 construct: purchased Sigma Aldrich (St. Louis, MO, USA)
The series is described as follows: In vitro mushroom tyrosinase inhibition assay (L-DOPA, dopachrome at 475 nm). The format is biochemical.
Target sequence in this assay (C7FF04 1-392 limits assumed): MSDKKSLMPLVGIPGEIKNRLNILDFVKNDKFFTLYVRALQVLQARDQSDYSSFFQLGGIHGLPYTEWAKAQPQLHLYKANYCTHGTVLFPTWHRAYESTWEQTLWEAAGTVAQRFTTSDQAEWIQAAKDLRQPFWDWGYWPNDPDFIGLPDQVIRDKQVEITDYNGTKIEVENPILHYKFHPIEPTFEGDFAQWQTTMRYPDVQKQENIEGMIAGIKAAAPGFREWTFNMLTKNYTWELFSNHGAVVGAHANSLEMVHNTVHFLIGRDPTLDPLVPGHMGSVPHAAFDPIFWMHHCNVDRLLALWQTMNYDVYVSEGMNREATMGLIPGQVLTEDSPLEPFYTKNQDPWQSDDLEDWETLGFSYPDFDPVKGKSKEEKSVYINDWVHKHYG
Experimental: In vitro mushroom tyrosinase (Sigma Aldrich, St. Louis, MO, USA) inhibition assay was performed, following our already reported method [52]. In detail, 140 µL of phosphate buffer (20 mM, pH 6.8), 20 µL of mushroom tyrosinase (30 U/mL) and 20 µL of the inhibitor solution were placed in the wells of a 96-well microplate. After pre-incubation for 10 min at room temperature, 20 µL of L-DOPA (3,4-dihydroxyphenylalanine, Sigma Aldrich, St. Louis, MO, USA) (0.85 mM) was added and the assay plate was further incubated at 25 °C for 20 min. Afterward the absorbance of dopachrome was measured at 475 nm using a microplate reader (OPTIMax, Tunable, Sunnyvale, CA, USA). All of the compounds were dissolved in DMSO and blank tests were performed with solvent DMSO. The IC50 values were reported after subtracting the value of DMSO. […] Each concentration was analyzed in three independent experiments. The IC50 values were determined by the data analysis and graphing software Origin 8.6, 64-bit.
The tyrosinase %age inhibition was determined by using the following formula:Inhibition (%) = [(B − S)/B] × 100(1)
Here, the absorbance of the blank and inhibitor are represented by B and S respectively.

Series [2] addresses T2, human tyrosinase (Homo sapiens, UniProt P14679).
T2 construct: endogenous in cells; host or cells: A375 human melanoma cells (ATCC), induced with L-tyrosine; sonicated pellet, 10,000 x g supernatant
T2 sequence (P14679 19-529): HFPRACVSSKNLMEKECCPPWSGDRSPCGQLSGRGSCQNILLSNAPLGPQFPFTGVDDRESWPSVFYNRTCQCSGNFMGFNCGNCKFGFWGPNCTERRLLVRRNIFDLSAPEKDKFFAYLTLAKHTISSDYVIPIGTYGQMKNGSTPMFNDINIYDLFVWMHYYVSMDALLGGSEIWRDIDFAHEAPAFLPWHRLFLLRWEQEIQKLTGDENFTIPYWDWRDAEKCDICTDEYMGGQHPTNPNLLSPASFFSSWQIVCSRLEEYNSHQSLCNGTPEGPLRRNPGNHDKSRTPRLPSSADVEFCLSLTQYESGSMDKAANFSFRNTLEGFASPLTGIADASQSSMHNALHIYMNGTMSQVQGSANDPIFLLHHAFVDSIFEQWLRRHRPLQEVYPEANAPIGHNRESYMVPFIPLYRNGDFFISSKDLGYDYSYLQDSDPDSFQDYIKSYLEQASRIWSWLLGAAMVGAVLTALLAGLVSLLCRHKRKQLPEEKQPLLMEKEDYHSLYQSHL
The series is described as follows: Human tyrosinase inhibition assay (enzyme prepared from A375 human melanoma cells). The format is biochemical. The note with it: L-DOPA, 50 µg/mL (b9).
Experimental: A375 human melanoma cells were obtained from American Type Culture Collection (ATCC; Rockville, MD, USA). A375 cells were grown in Dulbecco’s modified Eagle’s medium (DMEM; Invitrogen, Burlington, ON, Canada) supplemented with L-glutamine, 10% (v/v) fetal bovine serum (FBS; Invitrogen), 50 µg/mL streptomycin (Sigma Aldrich, St. Louis, MO, USA), 50 units/mL penicillin (Sigma Aldrich) and supplemented with 200 µM of L-tyrosine for tyrosinase induction. Cell cultures were incubated at 37 °C, in a humidified atmosphere of 5% CO2. Cells were scraped out from the tissue culture plate with phosphate-buffer saline (PBS) and were homogenized at 4 °C in PBS. The homogenate was centrifuged at 1000× g for 10 min. The precipitate was sonicated in PBS on ice and the mixture was centrifuged at 10,000× g for 30 min. The supernatant containing tyrosinase was used for the measurement of the inhibitory effects.
The assay reaction mixture (200 µL) contained 3.3 mM L-DOPA in 0.33 M phosphate buffer (pH 7.0) and the enzyme in the presence and absence of inhibitors. Fifteen or twenty units of tyrosinase were used to determine the % inhibition. The reaction mixture was incubated at 37 °C for 10 min and the absorbance was recorded at 475 nm using a microplate reader (OPTI Max, Tunable). One unit of the enzyme was defined as the amount of enzyme which increases the absorbance value by 0.001 at 475 per minute under the same conditions as described above.

Series [3] deals with T1, mushroom tyrosinase. The series is described as follows: Kinetic analysis of the inhibition of mushroom tyrosinase (Lineweaver-Burk plots). Format: biochemical. The note with it: for Inhibition Type: Lineweaver-Burk plots; for Ki: secondary plot of slope. The method, then:
Among the synthesized Ph derivatives Ph5, Ph6 and Ph9 were selected to determine their inhibition type and inhibition constants on mushroom tyrosinase activity. The potential of these derivatives to inhibit the free enzyme and enzyme–substrate complex was determined in terms of enzyme inhibitor (EI) and enzyme–substrate-inhibitor (ESI) constants respectively. […] Meanwhile, in the case of compound Ph6, the Lineweaver–Burk plot gave a family of straight lines, all of which intersected at the same point on the x-axis Figure 2A. […] It is worth mentioning here that the enzyme inhibitory kinetics were performed with a more efficient natural substrate L-DOPA (L-3,4-dihydroxyphenylalanine). Ph5 is a 3,5-dihydroxyl-substituted benzoic acid derivative and Ph9 is 2,4-dihydroxyl-substituted cinnamic acid derivative whereas, Ph6 is an unsubstituted cinnamic acid analogue.
A series of experiments were performed to calculate the inhibitory kinetics of compounds Ph5, Ph6 and Ph9 by following the already reported method. […] The concentration of substrate L-DOPA was between 0.125 to 2 mM in all kinetic studies. Pre-incubation time and measurement time were the same as discussed in mushroom tyrosinase inhibition assay protocol. Maximal initial velocity was determined from initial linear portion of absorbance up to five minutes after addition of enzyme at a 30 s interval. The inhibition type on the enzyme was determined by Lineweaver–Burk plots of inverse velocities (1/V) versus the inverse of substrate concentration 1/[S] mM^−1.
Target sequence in this assay (C7FF04 1-392): as the sequence (C7FF04 1-392 limits assumed) above

For series [4], the target named is tyrosinase. Further details: method as in PMID 24191339. The settings on record: cited from earlier work.
Where [5] appears, read: substrate L-DOPA, pH 6.8, 25 °C, read-out: Mushroom Tyrosinase IC50 ± SEM.
Where [6] appears, read: mushroom tyrosinase, L-DOPA, read-out: Ki (enzyme inhibitor constant).

On to `COc1ccc(CCNC(=O)COC(=O)c2cccc(O)c2)cc1` [Ph1, 2-((4-methoxyphenethyl)amino)-2-oxoethyl 3-hydroxybenzoate], for which, in series [1] (setting [5]), the IC50 was found to be 4070 ± 154 nM. Moreover, the inhibition in series [2] was 75.6 ± 5.65%.

`COc1ccc(CCNC(=O)COC(=O)c2ccc(O)cc2)cc1` [Ph2, 2-((4-methoxyphenethyl)amino)-2-oxoethyl 4-hydroxybenzoate]: the IC50 in series [1] (setting [5]) came to 463 ± 17 nM. The molecule further came in with an inhibition in series [2] of 73 ± 5.35%.

On to `COc1ccc(CCNC(=O)COC(=O)c2ccc(O)cc2O)cc1` [Ph3, 2-((4-methoxyphenethyl)amino)-2-oxoethyl 2,4-dihydroxybenzoate], for which, in series [1] (setting [5]), the IC50 amounted to 839 ± 38.1 nM. In series [2], this molecule showed an inhibition of 79.7 ± 6.61%.

`COc1ccc(CCNC(=O)COC(=O)c2ccc(O)c(O)c2)cc1` [Ph4, 2-((4-methoxyphenethyl)amino)-2-oxoethyl 3,4-dihydroxybenzoate]: the IC50 in series [1] (setting [5]) is 329 ± 21 nM. The inhibition in series [2] is 82.2 ± 7.04%.

Turning to `COc1ccc(CCNC(=O)COC(=O)c2cc(O)cc(O)c2)cc1` [Ph5, 2-((4-methoxyphenethyl)amino)-2-oxoethyl 3,5-dihydroxybenzoate], the IC50 in series [1] (setting [5]) was determined as 231 ± 7.8 nM. Further, the Vmax in series [3] (inhibitor dose 0.2 µM) is recorded as 8.266 × 10^−6 ∆A/s; in series [3] (inhibitor dose 0.4 µM), 5.242 × 10^−6 ∆A/s. In series [3] (mushroom tyrosinase, L-DOPA), the “Inhibition Type” value is reported as “mixed-type inhibition”. Further, the “Ki′ (enzyme substrate inhibitor constant)” value in series [3] (mushroom tyrosinase, L-DOPA, secondary plot of intercept) amounted to 475 nM. Also, the inhibitory constant (Ki) in series [3] (setting [6]) came to 219 nM. Besides, the inhibition in series [2] amounted to 64.8 ± 3.84%.

On to `COc1ccc(CCNC(=O)COC(=O)C=Cc2ccccc2)cc1` [Ph6, 2-((4-methoxyphenethyl)amino)-2-oxoethyl cinnamate], for which the melting point lay in the range of 103 to 105 °C. Further, the half-inhibitory concentration (IC50) in series [1] (Mushroom Tyrosinase IC50 ± SEM, substrate L-DOPA, pH 6.8, 25 °C) came out at 2.04 ± 0.087 nM. For the same molecule, half-maximal inhibition in series [1] (Mushroom tyrosinase IC50, as printed in the abstract) (IC50) required 2.1 nM. The affinity in series [3] (Ki (enzyme inhibitor constant), mushroom tyrosinase, L-DOPA) corresponds to a Ki of 2.3 nM. Also, in series [3] (inhibitor dose 0.001 µM), the Vmax was 7.060 × 10^−6 ∆A/s. Moreover, in series [3] (inhibitor dose 0.002 µM), the Vmax is recorded as 6.929 × 10^−6 ∆A/s. Also, the “Inhibition Type” value in series [3] (mushroom tyrosinase, L-DOPA) is “non-competitive inhibitor; also recorded: non-competitive inhibition”. Also, in series [2], the “Human Tyrosinase (% Inhibition)” value was 92.24 ± 7.985% and the inhibition at 50 µg/mL was found to be 92.2%.

In turn, `COc1ccc(CCNC(=O)COC(=O)/C=C/c2ccccc2O)cc1` [Ph7, 2-((4-methoxyphenethyl)amino)-2-oxoethyl (E)-3-(2-hydroxyphenyl)acrylate] had a melting point of 111 to 113 °C. Also, in series [1] (setting [5]), the 50% inhibitory concentration (IC50) amounted to 104 ± 3.8 nM. The molecule also showed an inhibition in series [2] of 85.6 ± 6.04%.

In turn, `COc1ccc(CCNC(=O)COC(=O)/C=C/c2ccc(O)cc2)cc1` [Ph8, 2-((4-methoxyphenethyl)amino)-2-oxoethyl(E)-3-(4-hydroxyphenyl)acrylate] registered a melting point of 119 to 121 °C. For the same molecule, the IC50 in series [1] (setting [5]) was 923 ± 53 nM. For the same molecule, the inhibition in series [2] was 86.3 ± 6.54%.

As for `COc1ccc(CCNC(=O)COC(=O)/C=C/c2ccc(O)cc2O)cc1` [Ph9, 2-((4-methoxyphenethyl)amino)-2-oxoethyl(E)-3-(2,4-dihydroxyphenyl)acrylate], the IC50 is 0.059 nM in series [1] (read-out: Mushroom tyrosinase IC50); 0.06 nM and 0.059 nM and 0.0595 nM in series [1] (setting [5]). Also, the Vmax in series [3] (inhibitor dose 0.00003 µM) is listed as 4.666 × 10^−6 ∆A/s; in series [3] (inhibitor dose 0.00012 µM) it was 2.666 × 10^−6 ∆A/s; in series [3] (inhibitor dose 0.00015 µM), 4.285 × 10^−6 ∆A/s. Besides, in series [3] (mushroom tyrosinase, L-DOPA), the “Inhibition Type” value is given as “mixed-type inhibition”. In addition, the inhibitory constant (Ki) in series [3] (setting [6]) is 0.09 nM and 0.093 nM. The “Human Tyrosinase (% Inhibition)” value in series [2] worked out at 94.59 ± 8.071%. The same molecule yielded an inhibition at 50 µg/mL in series [2] of 94.6%.

With `COc1ccc(CCNC(=O)COC(=O)/C=C/c2ccc(Cl)cc2)cc1` [Ph10, 2-((4-methoxyphenethyl)amino)-2-oxoethyl (E)-3-(4-chlorophenyl)acrylate], the concentration for half-maximal inhibition (IC50) in series [1] (setting [5]) came to 452 ± 17.1 nM. Moreover, the inhibition in series [2] amounted to 79.2 ± 5.95%.

Take `O=c1oc2c(O)c(O)cc3c(=O)oc4c(O)c(O)cc1c4c23` [ellagic acid]: the “Tyrosinase inhibitory activity IC50” value in series [4] (substrate L-DOPA) is 151.1 µg/mL.

As for `O=c1c(O)c(-c2ccc(O)c(O)c2)oc2cc(O)c(O)c(O)c12` [quercetagetin], the “Tyrosinase inhibitory activity IC50” value is listed as 128.41 µg/mL in series [4] (substrate L-DOPA) and 89.31 µg/mL in series [4] (substrate L-tyrosine).
